Data taken from US6610853B1, “N-(phenylsulfonyl)picolinamide derivatives, process for producing the same, and herbicide” (Kureha Kagaku Kogyo K.K., priority 2000, dated 2003).

Experiments:
Test in all cases: Test on herbicidal activity by foliar application
Assay type in all cases: in vivo
Conditions in all cases: foliar spray, 1 kg/ha, plants at 1-2 leaf stage in pots, evaluated 14 days after spraying
[1] = test system: Abutilon theophrasti
Protocol: (§1) Test on Herbicidal Activity by Foliar Application: Herbicidal solutions of each test compounds, which were prepared by dissolving at predetermined concentrations such a wettable powder of the test compound as that described in the above Formulation Example, were sprayed at dosages of 1 kg/ha over foliar parts of Amaranthus retroflexus, Bidens pilosa, Sinapis arvensis, Stellaria media, Solanum nigrum, Abutilon theophrasti, Convolvulus arvensis, Matricaria chamomilla, Galium aparine, Veronica hederaefolia, and Setaria viridis (each test plant is 1-2 leaf stage) which were grown in pots. 14 days latter after spraying, its herbicidal activity was evaluated in accordance with the below-described system. Herbicidal Activity 1: less than 30% inhibition 2: 30% or more-50% inhibition 3: 50% or more-70% inhibition 4: 70% or more-90% inhibition 5: 90% or more inhibition

[2] = test system: Setaria viridis
Protocol: as §1

[3] = test system: Sinapis arvensis
Protocol: as §1

[4] = test system: Amaranthus retroflexus
Protocol: as §1

[5] = test system: Convolvulus arvensis
Protocol: as §1

[6] = test system: Galium aparine
Protocol: as §1

[7] = test system: Bidens pilosa
Protocol: as §1

[8] = test system: Matricaria chamomilla
Protocol: as §1

[9] = test system: Veronica hederaefolia
Protocol: as §1

[10] = test system: Stellaria media
Protocol: as §1

[11] = test system: Solanum nigrum
Protocol: as §1

Row | Structure (SMILES) | Herbicidal activity, Abutilon theophrasti [1] | Herbicidal activity, Setaria viridis [2] | Herbicidal activity, Sinapis arvensis [3] | Herbicidal activity, Amaranthus retroflexus [4] | Herbicidal activity, Convolvulus arvensis [5] | Herbicidal activity, Galium aparine [6] | Herbicidal activity, Bidens pilosa [7] | Herbicidal activity, Matricaria chamomilla [8] | Herbicidal activity, Veronica hederaefolia [9] | Herbicidal activity, Stellaria media [10] | Herbicidal activity, Solanum nigrum [11]
1 | COc1cc(Cl)nc(C(=O)NS(=O)(=O)c2ccccc2OC(F)(F)F)c1 [Compound I-795, N-[(2-Trifluoromethoxyphenyl)sulfonyl]-6-chloro-4-methoxy-2-pyridinecarboxamide] | 4 (70% or more-90% inhibition) | 2 (30% or more-50% inhibition) | 5 (90% or more inhibition) | 4 (70% or more-90% inhibition) | 3 (50% or more-70% inhibition) | 5 (90% or more inhibition) | 5 (90% or more inhibition) | 5 (90% or more inhibition) | 5 (90% or more inhibition) | 5 (90% or more inhibition) | 5 (90% or more inhibition)
2 | COc1cc(Cl)nc(C(=O)NS(=O)(=O)c2ccccc2Cl)c1 [Compound I-705, N-[(2-Chlorophenyl)sulfonyl]-6-chloro-4-methoxypyridine-2-carboxamide] | 2 (30% or more-50% inhibition) | 3 (50% or more-70% inhibition) | 5 (90% or more inhibition) | 4 (70% or more-90% inhibition) | 5 (90% or more inhibition) | 4 (70% or more-90% inhibition) | 5 (90% or more inhibition) | 4 (70% or more-90% inhibition) | 4 (70% or more-90% inhibition) | 5 (90% or more inhibition) | 4 (70% or more-90% inhibition)
3 | COc1cc(Cl)cc(C(=O)NS(=O)(=O)c2c(Cl)cccc2Cl)n1 [Compound I-581, N-[(2,6-Dichlorophenyl)sulfonyl]-4-chloro-6-methoxy-2-pyridinecarboxamide] | 4 (70% or more-90% inhibition) | 4 (70% or more-90% inhibition) | 5 (90% or more inhibition) | 5 (90% or more inhibition) | 4 (70% or more-90% inhibition) | 5 (90% or more inhibition) | 5 (90% or more inhibition) | 5 (90% or more inhibition) | 4 (70% or more-90% inhibition) | 5 (90% or more inhibition) | 5 (90% or more inhibition)
4 | COc1cc(Cl)nc(C(=O)NS(=O)(=O)c2c(F)cccc2F)c1 [Compound I-975, N-[(2,6-Difluorophenyl)sulfonyl]-6-chloro-4-methoxy-2-pyridinecarboxamide] | 5 (90% or more inhibition) | 3 (50% or more-70% inhibition) | 5 (90% or more inhibition) | 3 (50% or more-70% inhibition) | 4 (70% or more-90% inhibition) | 5 (90% or more inhibition) | 5 (90% or more inhibition) | 4 (70% or more-90% inhibition) | 3 (50% or more-70% inhibition) | 4 (70% or more-90% inhibition) | 5 (90% or more inhibition)
